Data reported in PubChem BioAssay AID1963842 (Molecular Pharmacology Branch, DTP, NCI, 2024).

System: 677734-321-R-J1-PDC complex spheroid viability
Experiment: Anticancer human tumor 677734-321-R-J1-PDC patient-derived soft tissue sarcoma cell line growth inhibition [POLQ]
Settings: for IC50: curve of first compound; for viability, T/C: stronger effect = lower value
Experimental: Multicellular complex tumor spheroid response to Polymerase (POL) inhibitors (novobiocin, ART-558, RP6685) in combination with a variety of drugs and investigational agents in selected tumor cell lines
The POL inhibitors (novobiocin, ART-558, and RP6685) were evaluated both individually and in combination with standard of care and investigational anticancer small molecules within a complex spheroid model of solid tumors. . Complex spheroids include a stromal component modeled by human endothelial cells (HUVEC) and fibroblasts modeled by human mesenchymal stem cells (MSCs). The concentration ranges selected for each drug and investigational agent were based upon clinically achievable concentrations if the clinical Cmax of the agent was known.
Compounds. The drugs and investigational agents: novobiocin (NSC847541), ART-558 (NSC835418), RP-6685 (NSC848927), peposertib (NSC802822), ceralasertib (NSC780249), elimusertib (NSC800525), camonsertib (NSC841442), AZD-1390 (NSC803789), olaparib (NSC753686), talazoparib (NSC767125), rucaparib (NSC756644), sotorasib (NSC818433), MRTX-1133 (NSC836407), SN-38 (NSC673596), topotecan (NSC609699), epotoside (NSC141540), doxorubicin (NSC123127), gemcitabine (NSC613327), 5-fluorouracil (NSC19893), paclitaxel (NSC125973), vemurafenib (NSC761431), MSA-2 (NSC828583), SN-011 (NSC837082), adavosertib (NSC754352), prexasertib (NSC758257), carboplatin (NSC241240) and oxaliplatin (NSC266046), were obtained from the National Cancer Institute (NCI) Developmental Therapeutics Program Chemical Repository (21). The FDA-approved anticancer drug set is available from the Developmental Therapeutics Program at https://dtp.cancer.gov/organization/dscb/obtaining/. […] The stock solutions were prepared in dimethyl sulfoxide (DMSO, Sigma-Aldrich, St. Louis, MO, cat. D2650), except for the platinum compounds which were prepared in saline (Quality Biological, Gaithersburg, MD, cat. 114-055-101), at 800-fold the tested concentration and stored at -70 degrees C prior to their use. All drugs and investigational agents were tested over a range starting from a high concentration at or near the clinical Cmax and decreasing in half-log increments. If the clinical Cmax for an agent had not been determined, the highest concentration tested was 10 microM, except for SN-38, which was tested at a high concentration of 1 microM.
Cell Culture. All cells were maintained in an incubator at 37 degrees C and 5% CO2 with 95% humidity. The PDC lines were cultured according to standard operating procedures established by the NCI PDMR (https://pdmr.cancer.gov). Table 3 of the manuscript, lists the cell lines along with the number of the three cell types plated to form the mct-spheroids and media for tumor cell growth. After thawing, all PDC lines, except 997537-175-T-J1-PDC and 415267-285-R-J2-PDC, were cultured in Matrigel-coated flasks prepared with a working solution of 1X Ham's F-12 nutrient mix, without supplementation (Thermo Fisher Scientific, cat. 11765054), 100 U/mL penicillin-streptomycin (Thermo Fisher Scientific, cat. 15140122), and 2.5% Matrigel (Corning Inc., Corning, NY, cat. 354248) for the first three passages. The two PDC lines 997537-175-T-J1-PDC and 415267-285-R-J2-PDC were cultured on uncoated flasks. The 857933-349-R-J2-PDC line was cultured in 6C/Colon 1B media containing advanced DMEM/F-12 (Thermo Fisher Scientific, cat. 12634028), 10 mM HEPES (Thermo Fisher Scientific, cat. 15630080), 1X GlutaMAX supplement (Thermo Fisher Scientific, cat. 35050061), 0.1 mg/mL primocin (InvivoGen, San Diego, CA, cat. ant-pm-2), 10% defined fetal bovine serum, heat inactivated (HyClone Laboratories Inc., Logan, UT, cat. SH30070.03HI), 50% L-WRN conditioned media (ATCC, cat. CRL-3276), 1.25 mM N-Acetyl-L-cysteine (Sigma-Aldrich, cat. A9165), 10 mM nicotinamide (Sigma-Aldrich, cat. N0636), 1X B-27 supplement (Thermo Fisher Scientific, cat. 17504044), 1X N-2 supplement (Thermo Fisher Scientific, cat. […]

[1] = second compound 0.0316 µM, first compound 0.0316 µM
[2] = second compound 0.0316 µM, first compound 0.1 µM
[3] = second compound 0.0316 µM, first compound 0.316 µM
[4] = second compound 0.0316 µM, first compound 1 µM
[5] = second compound 0.0316 µM, first compound 3.16 µM
[6] = second compound 0.0316 µM, first compound 10 µM
[7] = second compound 0.1 µM, first compound 0.0316 µM
[8] = second compound 0.1 µM, first compound 0.1 µM
[9] = second compound 0.1 µM, first compound 0.316 µM
[10] = second compound 0.1 µM, first compound 1 µM
[11] = second compound 0.1 µM, first compound 3.16 µM
[12] = second compound 0.1 µM, first compound 10 µM
[13] = second compound 0.316 µM, first compound 0.0316 µM
[14] = second compound 0.316 µM, first compound 0.1 µM
[15] = second compound 0.316 µM, first compound 0.316 µM
[16] = second compound 0.316 µM, first compound 1 µM
[17] = second compound 0.316 µM, first compound 3.16 µM
[18] = second compound 0.316 µM, first compound 10 µM
[19] = second compound 1 µM, first compound 0.0316 µM
[20] = second compound 1 µM, first compound 0.1 µM
[21] = second compound 1 µM, first compound 0.316 µM
[22] = second compound 1 µM, first compound 1 µM
[23] = second compound 1 µM, first compound 3.16 µM
[24] = second compound 1 µM, first compound 10 µM
[25] = second compound 3.16 µM, first compound 0.0316 µM
[26] = second compound 3.16 µM, first compound 0.1 µM
[27] = second compound 3.16 µM, first compound 0.316 µM
[28] = second compound 3.16 µM, first compound 1 µM
[29] = second compound 3.16 µM, first compound 3.16 µM
[30] = second compound 3.16 µM, first compound 10 µM
[31] = second compound 10 µM, first compound 0.0316 µM
[32] = second compound 10 µM, first compound 0.1 µM
[33] = second compound 10 µM, first compound 0.316 µM
[34] = second compound 10 µM, first compound 1 µM
[35] = second compound 10 µM, first compound 3.16 µM
[36] = second compound 10 µM, first compound 10 µM
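Note: spheroids exposed to compounds for one week.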
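Throughout, for viability, T/C: 100% = vehicle DMSO treated spheroids.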

## C=CC(=O)N1CCN(c2nc(=O)n(-c3c(C)ccnc3C(C)C)c3nc(-c4c(O)cccc4F)c(F)cc23)C(C)C1 (centres undefined) + COC1C(OC(N)=O)C(O)C(Oc2ccc3c(O)c(NC(=O)c4ccc(O)c(CC=C(C)C)c4)c(=O)oc3c2C)OC1(C)C
Second compound 0.0316 µM
  IC50: > 10 µM
Second compound 0.1 µM
  IC50: > 10 µM
Second compound 0.316 µM
  IC50: > 10 µM
Second compound 1 µM
  IC50: > 10 µM
Second compound 3.16 µM
  IC50: > 10 µM
Second compound 10 µM
  IC50: > 10 µM
[1]
  viability, T/C: 109%
[2]
  viability, T/C: 92.4%
[3]
  viability, T/C: 102%
[4]
  viability, T/C: 97.1%
[5]
  viability, T/C: 104%
[6]
  viability, T/C: 86.4%
[7]
  viability, T/C: 102%
[8]
  viability, T/C: 104%
[9]
  viability, T/C: 103%
[10]
  viability, T/C: 102%
[11]
  viability, T/C: 99.9%
[12]
  viability, T/C: 81.7%
[13]
  viability, T/C: 102%
[14]
  viability, T/C: 97.3%
[15]
  viability, T/C: 106%
[16]
  viability, T/C: 101%
[17]
  viability, T/C: 107%
[18]
  viability, T/C: 84.8%
[19]
  viability, T/C: 98.4%
[20]
  viability, T/C: 99.3%
[21]
  viability, T/C: 104%
[22]
  viability, T/C: 113%
[23]
  viability, T/C: 105%
[24]
  viability, T/C: 89.2%
[25]
  viability, T/C: 102%
[26]
  viability, T/C: 101%
[27]
  viability, T/C: 105%
[28]
  viability, T/C: 106%
[29]
  viability, T/C: 106%
[30]
  viability, T/C: 80.7%
[31]
  viability, T/C: 107%
[32]
  viability, T/C: 103%
[33]
  viability, T/C: 96%
[34]
  viability, T/C: 106%
[35]
  viability, T/C: 95.8%
[36]
  viability, T/C: 86.7%

## CCc1cc2c(N3CCc4c(cc(Cn5ccnc5)cc4-c4cn(C)nc4C(F)(F)F)C3=O)ccnc2c(OC)n1 + COC1C(OC(N)=O)C(O)C(Oc2ccc3c(O)c(NC(=O)c4ccc(O)c(CC=C(C)C)c4)c(=O)oc3c2C)OC1(C)C
Second compound 0.0316 µM
  IC50: > 10 µM
Second compound 0.1 µM
  IC50: > 10 µM
Second compound 0.316 µM
  IC50: > 10 µM
Second compound 1 µM
  IC50: > 10 µM
Second compound 3.16 µM
  IC50: > 10 µM
Second compound 10 µM
  IC50: > 10 µM
[1]
  viability, T/C: 111%
[2]
  viability, T/C: 108%
[3]
  viability, T/C: 105%
[4]
  viability, T/C: 106%
[5]
  viability, T/C: 88.7%
[6]
  viability, T/C: 62.5%
[7]
  viability, T/C: 108%
[8]
  viability, T/C: 110%
[9]
  viability, T/C: 109%
[10]
  viability, T/C: 104%
[11]
  viability, T/C: 92.2%
[12]
  viability, T/C: 62.6%
[13]
  viability, T/C: 117%
[14]
  viability, T/C: 105%
[15]
  viability, T/C: 98.4%
[16]
  viability, T/C: 98.7%
[17]
  viability, T/C: 84.8%
[18]
  viability, T/C: 64.6%
[19]
  viability, T/C: 113%
[20]
  viability, T/C: 103%
[21]
  viability, T/C: 96.1%
[22]
  viability, T/C: 100%
[23]
  viability, T/C: 83.5%
[24]
  viability, T/C: 58.6%
[25]
  viability, T/C: 117%
[26]
  viability, T/C: 101%
[27]
  viability, T/C: 108%
[28]
  viability, T/C: 97.5%
[29]
  viability, T/C: 93.1%
[30]
  viability, T/C: 63.6%
[31]
  viability, T/C: 112%
[32]
  viability, T/C: 106%
[33]
  viability, T/C: 109%
[34]
  viability, T/C: 102%
[35]
  viability, T/C: 81.6%
[36]
  viability, T/C: 65%
